Here are results for 65 molecules from PubChem BioAssay AID2005 (Sanford-Burnham Center for Chemical Genomics, 2009).

Active and inactive are the calls of the source.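 The calls were made as follows: active = plate Z score at or below -3, or inhibition of at least 30% at 20 µM; inactive = the rest.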

The nature of the test: compounds lowering EGFP fluorescence in F442A cells, dose response, counter-screen for p/CIP destabilizer project (AID 2005).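 Also: cells express EGFP alone from a CMV promoter as a counter screen for p/CIP-EGFP.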 Particulars: F442A EGFP cells, EGFP fluorescence, 16 h, stronger effect = higher value. (In general: Counterscreens check selectivity or assay interference.)

With `CCOc1ccc(NC(=O)/C(=C\c2ccc(OC(C)=O)c(OC)c2)NC(C)=O)cc1`, the inhibition – broadly, the relative decrease from the control value, in per cent – is 1.3% (EGFP decrease, at 10 µM) and -16.6% (inactive) (at 20 µM).

Take `CCOC(=O)CSC1=Nc2ccccc2C2=NC(CC(=O)NCc3ccc4c(c3)OCO4)C(=O)N12` (stereo not given): the inhibition was -26.1% (EGFP decrease, at 10 µM) and 3.9% (inactive) (at 20 µM).

Turning to `COC(=O)c1sc(NC(=O)CSc2nnnn2-c2cccc(OC)c2)nc1C`, the inhibition is 34.2% (EGFP decrease, at 10 µM) and 13.2% (inactive) (at 20 µM).

In the case of `COc1ccc2c(C)cc3nncn3c2c1`, the inhibition (EGFP decrease, at 10 µM) was -2.7% and the inhibition (at 20 µM) is 14.7% (inactive).

`CCN1C(=O)OC2(CCCCC2)C1(C)O` (stereo not given): the inhibition by setting is: (EGFP decrease, at 10 µM) -1.9%; (at 20 µM) 9% (inactive).

With `CC(=O)Nc1ccc(NC2=C(Cl)C(=O)c3ccccc3C2=O)cc1`, the inhibition is, setting by setting: (EGFP decrease, at 10 µM) 3%; (at 20 µM) 0.6% (inactive).

Take `COc1ccc(CC(=O)OC(C)C(=O)c2ccc(C)cc2)cc1` (stereo not given): the inhibition runs as follows: (EGFP decrease, at 10 µM) 32%; (at 20 µM) 25.4% (inactive).

Consider `Cn1ncnc2c(=O)n(C)c(=O)nc1-2`, for which the inhibition is 49.3% (EGFP decrease, at 10 µM) and 61.7% (at 20 µM).

In the case of `C/C(N)=C(/C#N)C(=O)CSc1nnnn1-c1ccc(C)cc1C`, the inhibition reads like this: (EGFP decrease, at 10 µM) 18%; (at 20 µM) 3.2% (inactive).

Regarding `CCCCCCn1c(=O)c(C(=O)Nc2cccc(C)n2)c(O)c2ccccc21`, the inhibition (EGFP decrease, at 10 µM) came out at 26.7% and the inhibition (at 20 µM) was 20.6% (inactive).

Turning to `O=C(CCCn1c(=O)c2cccn2c2cccnc21)NCc1cccc(Br)c1`, the inhibition runs as follows: (EGFP decrease, at 10 µM) -13.6%; (at 20 µM) 2.1% (inactive).

Turning to `Cc1ccc(NC(=O)N2CCCC2C(=O)NCc2ccc3c(c2)OCO3)cc1` (stereo not given), the inhibition reads like this: (EGFP decrease, at 10 µM) -10.4%; (at 20 µM) -0.3% (inactive).

On to `O=C(NCC1CCCO1)C1CCCCN1S(=O)(=O)c1ccc(F)cc1` (stereo not given), for which the inhibition is -13.3% (EGFP decrease, at 10 µM) and 9.4% (inactive) (at 20 µM).

In the case of `COCCC(=O)N1CCC(Oc2ccc(C(=O)N3CCCCCCC3)cc2)CC1`, the inhibition by setting is: (EGFP decrease, at 10 µM) 1.3%; (at 20 µM) 14% (inactive).

Take `COc1cc2c(cc1NC(=O)/C=C/c1ccccc1)oc1ccccc12`: the inhibition by setting is: (EGFP decrease, at 10 µM) 12.4%; (at 20 µM) -0.8% (inactive).

For `CC(C(=O)NC1=NCCS1)N1C(=O)C2CC=CCC2C1=O` (stereo not given), the inhibition is 20.2% (EGFP decrease, at 10 µM) and 27.7% (inactive) (at 20 µM).

On to `CCCCN(CCCC)CCCNC(=O)C12CN(Cc3ccccc3)CC1C(c1cccc([N+](=O)[O-])c1)=NO2` (stereo not given), for which the inhibition is 20.1% (EGFP decrease, at 10 µM) and -9.9% (inactive) (at 20 µM).

In the case of `CC(C)Cc1ccc(C(C)C(N)=NCCc2ccccc2)cc1` (stereo not given), the inhibition was -6.4% (EGFP decrease, at 10 µM) and -4.2% (inactive) (at 20 µM).

Turning to `CC(C)c1csc(CN2CCCC(CNC(=O)c3cccc4ccccc34)C2)n1` (stereo not given), the inhibition by setting is: (EGFP decrease, at 10 µM) 15%; (at 20 µM) 4.5% (inactive).

In the case of `COc1ccccc1CNS(=O)(=O)c1cccc(S(=O)(=O)N2CCOCC2)c1`, the inhibition reads like this: (EGFP decrease, at 10 µM) 3.3%; (at 20 µM) 4.8% (inactive).

For `CCCc1nc(NCC2CCCO2)c2nnn(Cc3ccccc3)c2n1` (stereo not given), the inhibition reads like this: (EGFP decrease, at 10 µM) 39%; (at 20 µM) 12.1% (inactive).

For the molecule `COc1cccc(/C=N/n2c(C3CCCCC3)n[nH]c2=S)c1O`, the inhibition (EGFP decrease, at 10 µM) was determined as 1.4% and the inhibition (at 20 µM) was 27.7% (inactive).

Take `O=C(CN1CCN(Cc2ccccc2Cl)C1=O)NCc1ccco1`: the inhibition by setting is: (EGFP decrease, at 10 µM) 17.1%; (at 20 µM) 31.5%.

For `CCc1cccc(C)c1NC(=O)CCNC(=O)c1cccc(C)c1`, the inhibition (EGFP decrease, at 10 µM) came to 12.2% and the inhibition (at 20 µM) was 12.9% (inactive).

With `Cc1nc(NC(=O)CN2CCN(c3ccccc3F)CC2)sc1C(=O)N(C)C`, the inhibition by setting is: (EGFP decrease, at 10 µM) 17%; (at 20 µM) 24.4% (inactive).

Take `Cc1ccc(S(=O)(=O)Nc2cccc(-c3cn4ccsc4n3)c2)cc1`: the inhibition reads like this: (EGFP decrease, at 10 µM) 31%; (at 20 µM) 10.2% (inactive).

Consider `CC(C)=CC(=O)Nc1ccccc1Br`, for which the inhibition (EGFP decrease, at 10 µM) was 26.1% and the inhibition (at 20 µM) was 12.9% (inactive).

Consider `CC1CC(C)CN(C(=O)C2CCN(S(=O)(=O)c3cccs3)CC2)C1` (stereo not given), for which the inhibition by setting is: (EGFP decrease, at 10 µM) 1.5%; (at 20 µM) 8.5% (inactive).

In the case of `COC(=O)c1ccc(NC(=O)CCCCCn2nnc3ccccc3c2=O)cc1`, the inhibition (EGFP decrease, at 10 µM) stood at 5.4% and the inhibition (at 20 µM) was -4% (inactive).

On to `Cn1c(SCc2ccc(C#N)cc2)nnc1-c1ccccc1`, for which the inhibition is 18.5% (EGFP decrease, at 10 µM) and -12.9% (inactive) (at 20 µM).

Consider `COC(=O)c1[nH]c2c(c1C)C(=O)CC(c1cccs1)C2` (stereo not given), for which the inhibition is 16.8% (EGFP decrease, at 10 µM) and -4.5% (inactive) (at 20 µM).

`CC(=O)Nc1ccc2c(c1)nc(CCNC(=O)c1ccco1)n2C`: the inhibition reads like this: (EGFP decrease, at 10 µM) 1.2%; (at 20 µM) 13% (inactive).

Regarding `CCOc1ccc(-c2c[n+]3c(n2-c2ccccc2)CCCCC3)cc1`, the inhibition was 32.2% (EGFP decrease, at 10 µM) and 51.3% (at 20 µM).

Regarding `Cc1cc(=O)[nH]c(SCC(=O)O)c1C#N`, the inhibition runs as follows: (EGFP decrease, at 10 µM) 24%; (at 20 µM) 10.9% (inactive).

Consider `COc1cc(C2NCCC(=O)C2(C)C)cc(OC)c1OC` (stereo not given), for which the inhibition was -1.8% (EGFP decrease, at 10 µM) and 21.4% (inactive) (at 20 µM).

In the case of `CC(C)[C@H](NC(=O)c1ccc(F)cc1)C(=O)NC1=NCCS1`, the inhibition (EGFP decrease, at 10 µM) was 21.6% and the inhibition (at 20 µM) is 2.2% (inactive).

As for `Cc1ccc(NC(=O)C(NS(=O)(=O)c2cccc3nsnc23)C(C)C)nc1` (stereo not given), the inhibition (EGFP decrease, at 10 µM) is 34.6% and the inhibition (at 20 µM) was 21.7% (inactive).

For the molecule `Nc1ccc2nc(-c3ccc(-c4nc5ccc(N)cc5[nH]4)cc3)[nH]c2c1`, the inhibition is 15.4% (EGFP decrease, at 10 µM) and 25% (inactive) (at 20 µM).

In the case of `COCCn1c(SCC(=O)Nc2cc(C)on2)nnc1C(C)C`, the inhibition (EGFP decrease, at 10 µM) was -1.7% and the inhibition (at 20 µM) was 0.9% (inactive).

Regarding `COc1ccccc1N1CCN(CC(O)COCc2cccs2)CC1` (stereo not given), the inhibition is, setting by setting: (EGFP decrease, at 10 µM) 16.3%; (at 20 µM) 8% (inactive).

In the case of `Cc1nn(C)c(Cl)c1S(=O)(=O)N[C@@H](c1ccccc1)[C@]1(C)C[C@H]1[C@@H](C)C(=O)Nc1ccc2ccccc2c1`, the inhibition reads like this: (EGFP decrease, at 10 µM) 34.6%; (at 20 µM) 11.3% (inactive).

On to `N#Cc1cn(CC(=O)NCCc2c[nH]c3ccccc23)c2ccccc12`, for which the inhibition (EGFP decrease, at 10 µM) worked out at 10.9% and the inhibition (at 20 µM) is -0.3% (inactive).

Turning to `O=C1C(=O)c2ccc(-c3ccccc3)cc2-c2ccccc21`, the inhibition is -14.4% (EGFP decrease, at 10 µM) and 2.4% (inactive) (at 20 µM).

For the molecule `NC(=O)c1nsc(C(=O)N(CC(=O)NC2CCCC2)c2ccc(F)c(Cl)c2)c1N`, the inhibition (EGFP decrease, at 10 µM) is -4.6% and the inhibition (at 20 µM) was 15.2% (inactive).

Regarding `COC(=O)COc1ccc(Oc2nc(SC)nc(N(C)C)n2)nn1`, the inhibition (EGFP decrease, at 10 µM) amounted to 34.2% and the inhibition (at 20 µM) is 29.7% (inactive).

With `O=C(NC1=NCCS1)c1ccc(N2CCCC2=O)cc1`, the inhibition (EGFP decrease, at 10 µM) was -10.3% and the inhibition (at 20 µM) was -1.1% (inactive).

For `COc1ccc(CNC2CCCCC2)cc1`, the inhibition runs as follows: (EGFP decrease, at 10 µM) 26%; (at 20 µM) 20.4% (inactive).

For the molecule `O=C(Nc1ccnn1C1CCN(Cc2ccccc2OC(F)F)CC1)c1cccc(F)c1`, the inhibition by setting is: (EGFP decrease, at 10 µM) 26.5%; (at 20 µM) 37.8%.

`Cc1nnc(NC(=O)CSc2nccn2Cc2ccc(F)cc2)s1`: the inhibition is, setting by setting: (EGFP decrease, at 10 µM) 22.4%; (at 20 µM) 16.3% (inactive).

As to `COc1cccc(-c2nc(CS(=O)CC(=O)NCc3ccccc3)c(C)o2)c1` (stereo not given), the inhibition is, setting by setting: (EGFP decrease, at 10 µM) 19.6%; (at 20 µM) -13.3% (inactive).

As for `CCC1=C(OC(=O)N(CC)CC)N2C(=O)OC(=NCC(=O)OC)[C@]2(Cc2ccccc2)[C@H]2C1=CC[C@H]1C(=O)N(c3ccccc3)C(=O)[C@H]12`, the inhibition is 8.2% (EGFP decrease, at 10 µM) and 2% (inactive) (at 20 µM).

On to `CCOc1ccc(-c2nc(-c3ccccc3)no2)cc1OCC`, for which the inhibition by setting is: (EGFP decrease, at 10 µM) -19.3%; (at 20 µM) 1.4% (inactive).

Consider `O=C(COc1ccc(F)cc1)Nc1nc2c(s1)CCCC2`, for which the inhibition (EGFP decrease, at 10 µM) stood at 26.7% and the inhibition (at 20 µM) was 24% (inactive).

As to `CC1CN(C(=O)c2cn3ccccc3n2)CC(C)O1` (stereo not given), the inhibition is 9.8% (EGFP decrease, at 10 µM) and 22.5% (inactive) (at 20 µM).

Regarding `CC(=O)Nc1ccc(S(=O)(=O)NCc2cn3ccsc3n2)cc1`, the inhibition runs as follows: (EGFP decrease, at 10 µM) 8.3%; (at 20 µM) 1% (inactive).

Turning to `Cc1ccc(NC(=O)CC2C(=O)NC3CCCCC3N2C(=O)c2ccc(F)cc2)cc1C` (stereo not given), the inhibition is 12.9% (EGFP decrease, at 10 µM) and 24.7% (inactive) (at 20 µM).

Regarding `COc1cc2c(cc1OC)/C(=C/C#N)NC(C)(C)C2`, the inhibition (EGFP decrease, at 10 µM) came out at 6.8% and the inhibition (at 20 µM) was 8% (inactive).

For the molecule `O=C(Oc1ccccc1-c1nnco1)c1ccccc1`, the inhibition was 31% (EGFP decrease, at 10 µM) and -29.2% (inactive) (at 20 µM).

Regarding `N#Cc1cc(F)c(N2CCNCC2)cc1Cl`, the inhibition (EGFP decrease, at 10 µM) worked out at 13.5% and the inhibition (at 20 µM) is 6.7% (inactive).

For the molecule `Cn1cc(/C=C(\C(=O)O)C(C(=O)O)=C2CCCCC2)c2ccccc21`, the inhibition was 13.9% (EGFP decrease, at 10 µM) and 17.2% (inactive) (at 20 µM).

Consider `NC(=O)c1cccn(Cc2ccc(C(F)(F)F)cc2)c1=O`, for which the inhibition reads like this: (EGFP decrease, at 10 µM) 6.5%; (at 20 µM) 5.4% (inactive).

Turning to `Cc1ccccc1CN1CCC(CNC(=O)Nc2ccc(F)cc2F)CC1`, the inhibition was 25.1% (EGFP decrease, at 10 µM) and 20.2% (inactive) (at 20 µM).

As to `CCOCCc1nnc(NC(=O)CS(=O)(=O)Cc2ccccc2)s1`, the inhibition was 12% (EGFP decrease, at 10 µM) and 6% (inactive) (at 20 µM).

Turning to `CSCCC(CO)NC(=O)OCc1ccccc1` (stereo not given), the inhibition by setting is: (EGFP decrease, at 10 µM) 10.8%; (at 20 µM) -23.3% (inactive).

In the case of `CC1CCCCC1NC(=O)CN1C(=O)c2ccccc2S1(=O)=O` (stereo not given), the inhibition is, setting by setting: (EGFP decrease, at 10 µM) -11.2%; (at 20 µM) 13.6% (inactive).
